Reference: patent publication US20240287463A1, “INDUCIBLE TISSUE CONSTRUCTS AND USES THEREOF” (Massachusetts Institute of Technology, priority 2020, published 2024)

How the values were obtained:
Format in all cases: cell-based
[1] = biological target: T1, inducible caspase-9 (iCasp9) (Homo sapiens, UniProt P55211); assay: caspase-9 activation in CID-treated iCasp9-GFP J2 fibroblasts (antibody staining, Caspase-Glo 9)
T1 construct: #15567 pMSCV-F-del Casp9.IRES.GFP; host or cells: 3T3-J2 fibroblasts, lentivirally transduced
From the text: Inducible caspase-9 (iCasp9), which is activated by treatment with a small molecule chemical inducer of dimerization (CID; also known as rapalog, an analog of rapamycin) and leads to subsequent cell death through the intrinsic apoptosis pathway was utilized (FIG. 1A). The safety and efficacy of the iCasp9 transgene and CID have previously been shown in vitro and in vivo in animals and humans (A. Di Stasi, et al. (2011) dx.doi.org/10.1056/NEJMoa1106152; T. Gargett and M. P. Brown (2014) Front. Pharmacol. 5; K. C. Straathof, et al. (2005) Blood 105, 4247, each of which is herein incorporated by this reference). To generate inducible cells, 3T3-J2 fibroblasts (‘J2’) were transduced with lentivirus with a bidirectional expression cassette encoding iCasp9 and GFP genes (#15567 pMSCV-F-del Casp9.IRES.GFP; cloned to a lentivirus plasmid backbone with an SFFV promoter). FACS was used to enrich the infected population for the 15% highest-expression GFP+ cells. […] To transfect J2s, virus was added to growth media and cultured overnight. iCasp9-GFP J2 fibroblasts at passage 22 were grown at confluence for 2 weeks to mimic experimental culture conditions, without a decrease in the percentage of the cell population with positive GFP expression. iCasp9-GFP J2s were plated in monolayer and dosed with ethanol vehicle or CID (B/B homodimerizer, AP20187; rapalog; Takara/ClonTech), and then assayed for cell viability using the CellTiter-Glo® Luminescent Cell Viability Assay (Promega), for caspase-9 activation using the CaspGLOW™ Fluorescein Active Caspase-9 Staining Kit (Thermo Fisher Scientific) and Caspase-Glo®9 Assay Systems (Promega), or stained with the Pacific Blue Annexin V/SYTOXTM AADvanced™ Apoptosis Kit (Thermo Fisher) to identify apoptotic cells by flow cytometry (>100,000 cells analyzed per condition).
After iCasp9-GFP J2 fibroblasts were exposed to CID, iCasp9 dimers were detected by staining with a caspase-9 antibody (FIG. 1C). […]

iCasp9-GFP J2s = assay: fibroblast deletion from 3D spheroid-laden hydrogels
From the text: Previous work identified that phenotypic stability and longevity of primary hepatocytes cultured as 3D microtissues were transiently supported by pre-aggregation to increase homotypic cell-cell interactions, and were further enhanced upon inclusion of J2 fibroblasts (C. Y. Li et al. (2014) Tissue Eng. Part A 20, 2200). Thus, iCasp9-GFP J2 fibroblasts were incorporated into these 3D hepatic ensembles, which were fabricated by plating primary human hepatocytes and fibroblasts in microwells in order to facilitate physical cell-cell contacts, as previously described (K. Stevens et al. (2013) Nat. Commun. 4, 1847; K. R. Stevens et al. (2017) Sci. Transl. Med. 9, eaaah5505). […] Hepatic spheroids (about 150 hepatocytes per spheroid, ˜100 μm diameter) were imaged and analyzed to quantify the extent of spheroid compaction. […] Resulting morphologies were traced and measured for circularity. […]
To probe the dependence of hepatocyte phenotypic stability on fibroblast co-culture in 3D, fibroblasts were deleted from spheroid-laden hydrogel cultures using CAMEO after 1 day of hepatocyte-fibroblast co-culture. Fibroblasts were robustly removed from 3D co-cultures as described in the above Examples, and detected by immunofluorescence imaging (FIG. 3I). […]

iCasp9-GFP fibroblasts = assay: viability of hydrogel-encapsulated monoculture fibroblasts

T1 sequence (P55211 with tags, fused parts or gaps limits assumed): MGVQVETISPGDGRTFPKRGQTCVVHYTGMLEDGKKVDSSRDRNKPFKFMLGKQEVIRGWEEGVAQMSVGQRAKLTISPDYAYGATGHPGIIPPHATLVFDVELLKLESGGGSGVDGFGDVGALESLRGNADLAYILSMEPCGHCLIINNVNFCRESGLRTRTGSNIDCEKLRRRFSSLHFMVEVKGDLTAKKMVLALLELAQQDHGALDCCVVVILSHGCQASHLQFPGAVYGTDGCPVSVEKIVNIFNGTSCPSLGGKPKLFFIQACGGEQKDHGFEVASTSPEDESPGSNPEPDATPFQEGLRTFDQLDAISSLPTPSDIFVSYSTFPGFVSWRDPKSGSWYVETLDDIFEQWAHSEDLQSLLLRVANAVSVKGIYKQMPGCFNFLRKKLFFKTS

- Caspase-9 staining ([1]; 50 nM CID, collected 15 and 30 minutes after treatment): increased
- caspase-9 cleavage compared to wild-type J2s ([1]; 15 minutes after CID dosing): 16 fold
- caspase-9 cleavage compared to wild-type J2s ([1]; 30 minutes after CID dosing): 18 fold
Structure (SMILES): CC[C@H](C(=O)N1CCCC[C@H]1C(=O)O[C@H](CCc1ccc(OC)c(OC)c1)c1cccc(OCC(=O)NCC(CNC(=O)COc2cccc([C@@H](CCc3ccc(OC)c(OC)c3)OC(=O)[C@@H]3CCCCN3C(=O)[C@@H](CC)c3cc(OC)c(OC)c(OC)c3)c2)CN(C)C)c1)c1cc(OC)c(OC)c(OC)c1 [CID, AP20187]
- iCasp9-GFP staining (iCasp9-GFP J2s; 50 nM CID at day 1, imaged starting at day 2): negligible
- deletion of iCasp9-GFP J2s throughout the hydrogel (iCasp9-GFP J2s; spheroid-laden hydrogel cultures, data not shown): robust and specific deletion
- fibroblast viability (iCasp9-GFP fibroblasts; hydrogel-encapsulated, after 6 hours of CID): undetectable
- fibroblast regrowth (iCasp9-GFP fibroblasts; over the course of 21 days after CID): did not regrow
